In patent US20150031693A1, “PAK INHIBITORS FOR THE TREATMENT OF FRAGILE X SYNDROME” (AFRAXIS HOLDINGS, INC., priority 2011, published 2015) one finds IC50 data, which are given here for 13 compounds.

For experiment [1], the target named is PAK2 (PAK65) (Homo sapiens, UniProt Q13177). Nature of the experiment: In vitro PAK inhibition assay (Z'-LYTE), PAK2. In kind it is biochemical. How it is done:
(§1) In Vitro PAK Inhibition Assay
(§2) Compounds are screened in 1% DMSO (final) in the well. For 10 point titrations, 3-fold serial dilutions are conducted. All Peptide/Kinase Mixtures are diluted to a 2× working concentration in the appropriate Kinase Buffer
The 2× PAK2 (PAK65)/Ser/Thr 20 mixture is prepared in 50 mM HEPES pH 7.5, 0.01% BRIJ-35, 10 mM MgCl2, 1 mM EGTA. The final 10 μL Kinase Reaction consists of 0.29-6 ng PAK2 (PAK65) and 2 μM Ser/Thr 20 in 50 mM HEPES pH 7.5, 0.01% BRIJ-35, 10 mM MgCl2, 1 mM EGTA. After the 1 hour Kinase Reaction incubation, 5 μL of a 1:256 dilution of Development Reagent A is added.
(§3) Bar-coded Corning, low volume NBS, black 384-well plate (Corning Cat. #3676) • 1. Add the following solutions to a well in a 384-well plate: 2.5 μL of 4× Test Compound OR (100 nL 100× Test Compound plus 2.4 μL kinase buffer) • 5 μL of 2× Peptide/Kinase (PAK) Mixture • 2.5 μL of 4× ATP Solution • 2. Shake the plate for 30-seconds • 3. Incubate the PAK Kinase Reaction at room temperature for 60-minutes • 4. Add 5 μL of Development Reagent Solution to each well • 5. Shake the plate for 30-seconds • 6. Incubate the Development Reaction for 60-minutes • 7. Determine the fluorescence using a fluorescence plate reader • 8. Analyze the fluorescence data
(§4) SelectScreen® Kinase Profiling Service uses XLfit from IDBS. The dose response curve is curve fit to model number 205 (sigmoidal dose-response model).
(§5) The table below provides specifications and data around each kinase. The representative IC50 value with a known inhibitor for each kinase was determined at the ATP bin nearest to the ATP Km app.

Experiment [2] concerns the target PAK3 (Homo sapiens, UniProt O75914). Description: In vitro PAK inhibition assay (Z'-LYTE), PAK3. The class given is biochemical. How it is done:
as §1, §2
The 2× PAK3/Ser/Thr 20 mixture is prepared in 50 mM HEPES pH 7.5, 0.01% BRIJ-35, 10 mM MgCl2, 1 mM EGTA. The final 10 μL Kinase Reaction consists of 2.25-22 ng PAK3 and 2 μM Ser/Thr 20 in 50 mM HEPES pH 7.5, 0.01% BRIJ-35, 10 mM MgCl2, 1 mM EGTA. After the 1 hour Kinase Reaction incubation, 5 μL of a 1:256 dilution of Development Reagent A is added.
as §3, §4, §5

The target in experiment [3] is T1, PAK4 (Homo sapiens, UniProt O96013). Nature of the experiment: In vitro PAK inhibition assay (Z'-LYTE), PAK4. The class given is biochemical. Here is the method:
as §1, §2
The 2× PAK4/Ser/Thr 20 mixture is prepared in 50 mM HEPES pH 7.5, 0.01% BRIJ-35, 10 mM MgCl2, 1 mM EGTA. The final 10 μL Kinase Reaction consists of 0.1-0.75 ng PAK4 and 2 μM Ser/Thr 20 in 50 mM HEPES pH 7.5, 0.01% BRIJ-35, 10 mM MgCl2, 1 mM EGTA. After the 1 hour Kinase Reaction incubation, 5 μL of a 1:256 dilution of Development Reagent A is added.
as §3, §4, §5

Experiment [4] deals with T2, PAK1 (Homo sapiens, UniProt Q13153). Nature of the experiment: In vitro PAK inhibition assay (Z'-LYTE), PAK1. The class given is biochemical. How it is done:
as §1, §2
The 2× PAK1/Ser/Thr 19 mixture is prepared in 50 mM HEPES pH 7.5, 0.01% BRIJ-35, 10 mM MgCl2, 1 mM EGTA. The final 10 μL Kinase Reaction consists of 2.71-30.8 ng PAK1 and 2 μM Ser/Thr 19 in 50 mM HEPES pH 7.5, 0.01% BRIJ-35, 10 mM MgCl2, 1 mM EGTA. After the 1 hour Kinase Reaction incubation, 5 μL of a 1:128 dilution of Development Reagent A is added.
as §3, §4, §5

Experiment [5] concerns p-PAK1(S144). Nature of the experiment: In vitro cellular HTRF assay for p-PAK1(S144). The class given is cell-based. Particulars: cell line RT4-D6P2T, read-out: pPAK1(S144). The source says: (§6) In Vitro p-PAK1(S144) and p-MEK1(S298) Cellular Assay
(§7) The cell line is RT4-D6P2T.
In general terms: In TR-FRET formats the signal depends on donor and acceptor labels being close together.

Experiment [6] deals with p-MEK1(S298). Description: In vitro cellular HTRF assay for p-MEK1(S298). The class given is cell-based. Particulars: cell line RT4-D6P2T, read-out: pMEK1(S298).
Excerpt: as §6, §7

Experiment [7] deals with T1, PAK4. Description: Additional in vitro PAK inhibition assay, PAK4. As to conditions: 10 μM ATP. In kind it is biochemical. How it is done:
(§8) Additional In Vitro PAK Inhibition Assay
(§9) Similar in vitro PAK1 and PAK4 inhibition assay was conducted in compounds for the treatment of Fragile X syndrome, but under ATP concentrations of 10 uM and 1 mM.

In experiment [8] the target is T2, PAK1. Description: Additional in vitro PAK inhibition assay, PAK1. The class given is biochemical. How it is done: as §8, §9

Sequence of PAK3 (O75914 whole entry): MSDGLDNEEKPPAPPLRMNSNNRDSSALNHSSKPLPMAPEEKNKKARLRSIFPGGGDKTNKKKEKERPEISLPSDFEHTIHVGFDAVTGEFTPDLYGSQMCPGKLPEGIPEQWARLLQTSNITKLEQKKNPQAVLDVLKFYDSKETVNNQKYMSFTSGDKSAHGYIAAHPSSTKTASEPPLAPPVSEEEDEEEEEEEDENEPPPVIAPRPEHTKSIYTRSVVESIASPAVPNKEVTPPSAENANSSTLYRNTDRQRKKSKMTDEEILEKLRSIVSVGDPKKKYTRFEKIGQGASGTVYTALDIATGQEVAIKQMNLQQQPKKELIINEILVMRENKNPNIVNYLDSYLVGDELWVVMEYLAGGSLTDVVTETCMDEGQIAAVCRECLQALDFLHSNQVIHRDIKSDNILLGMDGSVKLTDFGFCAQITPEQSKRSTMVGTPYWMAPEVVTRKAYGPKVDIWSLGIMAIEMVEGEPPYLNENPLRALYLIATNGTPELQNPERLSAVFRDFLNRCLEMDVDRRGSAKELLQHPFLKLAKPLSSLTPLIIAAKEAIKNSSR
Sequence of PAK2 (PAK65) (Q13177 whole entry): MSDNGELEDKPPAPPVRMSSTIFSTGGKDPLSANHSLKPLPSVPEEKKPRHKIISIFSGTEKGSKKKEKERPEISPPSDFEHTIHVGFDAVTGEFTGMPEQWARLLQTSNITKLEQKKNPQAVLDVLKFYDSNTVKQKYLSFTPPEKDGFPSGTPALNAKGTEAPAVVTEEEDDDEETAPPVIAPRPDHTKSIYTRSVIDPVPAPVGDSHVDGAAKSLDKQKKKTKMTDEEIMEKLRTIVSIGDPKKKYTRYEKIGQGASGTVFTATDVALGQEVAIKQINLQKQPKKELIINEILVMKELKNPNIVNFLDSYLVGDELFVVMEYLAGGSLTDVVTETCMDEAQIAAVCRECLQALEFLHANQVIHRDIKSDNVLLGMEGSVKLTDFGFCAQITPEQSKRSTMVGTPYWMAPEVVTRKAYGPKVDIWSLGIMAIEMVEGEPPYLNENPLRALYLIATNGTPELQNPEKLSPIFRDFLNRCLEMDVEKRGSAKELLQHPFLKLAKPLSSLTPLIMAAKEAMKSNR
T1 sequence (O96013 whole entry): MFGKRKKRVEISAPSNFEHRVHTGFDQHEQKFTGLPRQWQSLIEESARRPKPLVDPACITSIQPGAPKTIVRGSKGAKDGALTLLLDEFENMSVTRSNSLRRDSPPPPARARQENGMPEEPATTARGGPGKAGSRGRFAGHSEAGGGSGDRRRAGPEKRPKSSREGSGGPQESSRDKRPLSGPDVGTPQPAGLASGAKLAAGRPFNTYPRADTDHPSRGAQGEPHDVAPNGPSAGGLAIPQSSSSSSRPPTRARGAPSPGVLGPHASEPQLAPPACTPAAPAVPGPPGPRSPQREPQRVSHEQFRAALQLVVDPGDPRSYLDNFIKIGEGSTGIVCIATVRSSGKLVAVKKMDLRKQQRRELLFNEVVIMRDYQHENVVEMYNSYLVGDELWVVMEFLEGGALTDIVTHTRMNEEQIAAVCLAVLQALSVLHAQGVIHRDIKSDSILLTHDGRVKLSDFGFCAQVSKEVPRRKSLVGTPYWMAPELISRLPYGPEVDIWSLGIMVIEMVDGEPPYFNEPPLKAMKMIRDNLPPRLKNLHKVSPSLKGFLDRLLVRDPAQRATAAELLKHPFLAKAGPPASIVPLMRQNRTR
T2 sequence (Q13153 whole entry): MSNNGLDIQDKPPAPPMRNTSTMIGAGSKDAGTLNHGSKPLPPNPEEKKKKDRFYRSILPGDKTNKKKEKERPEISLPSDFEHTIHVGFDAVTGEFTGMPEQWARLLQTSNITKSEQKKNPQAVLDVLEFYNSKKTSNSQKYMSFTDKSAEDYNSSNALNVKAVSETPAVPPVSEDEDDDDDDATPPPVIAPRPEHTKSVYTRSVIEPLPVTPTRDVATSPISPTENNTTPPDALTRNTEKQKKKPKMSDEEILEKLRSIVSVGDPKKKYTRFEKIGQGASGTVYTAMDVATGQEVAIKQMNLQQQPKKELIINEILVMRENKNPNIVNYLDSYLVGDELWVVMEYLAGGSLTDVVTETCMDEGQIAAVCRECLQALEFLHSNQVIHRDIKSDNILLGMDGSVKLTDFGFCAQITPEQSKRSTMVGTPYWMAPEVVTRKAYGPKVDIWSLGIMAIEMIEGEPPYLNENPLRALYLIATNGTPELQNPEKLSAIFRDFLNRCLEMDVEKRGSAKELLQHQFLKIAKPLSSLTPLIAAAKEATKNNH

Consider `CCn1c(=O)c(-c2ccc(-c3cncc(C)n3)cc2Cl)cc2cnc(NCCCO)nc21` [Example 1, 6-(2-chloro-4-(6-methylpyrazin-2-yl)phenyl)-8-ethyl-2-((3-hydroxypropyl)amino)pyrido[2,3-d]pyrimidin-7(8H)-one], for which the IC50 in experiment [1] is 50 to 500 nM; in experiment [2], 50 to 500 nM; in experiment [3] it was > 5000 nM; in experiment [4], 50 to 500 nM.

Regarding `CCn1c(=O)c(-c2ccc(-c3nccnc3C)cc2Cl)cc2cnc(NCCOC)nc21` [Example 8], the IC50 in experiment [1] was 50 to 500 nM; in experiment [2], 500 to 5000 nM; in experiment [3] it was > 5000 nM; in experiment [4] it was 50 to 500 nM.

`CCn1c(=O)c(-c2ccc(-c3cncc(C)n3)cc2Cl)cc2cnc(NCCO)nc21` [Example 7]: the IC50 was 50 to 500 nM in experiment [1], 50 to 500 nM in experiment [2], > 5000 nM in experiment [3] and 50 to 500 nM in experiment [4].

In the case of `CCn1c(=O)c(-c2ccc(-c3nccnc3C)cc2Cl)cc2cnc(NCCCO)nc21` [Example 3], the IC50 in experiment [1] was 50 to 500 nM; in experiment [2], 50 to 500 nM; in experiment [3] it was > 5000 nM; in experiment [4] it was 50 to 500 nM.

Consider `CCn1c(=O)c(-c2ccc(-c3cncc(C)n3)cc2Cl)cc2cnc(N[C@H]3CC[C@H](CN(C)C)CC3)nc21`, for which the IC50 in experiment [5] and in experiment [6] was 500 to 5000 nM in each case.

As for `CCn1c(=O)c(-c2ccc(-c3cncc(C)n3)cc2Cl)cc2cnc(NCCOC)nc21` [Example 11], the IC50 in experiment [1] was 50 to 500 nM; in experiment [2], 500 to 5000 nM; in experiment [3], > 5000 nM; in experiment [4] it was 50 to 500 nM.

As for `CCn1c(=O)c(-c2ccc(-c3cncc(C)n3)cc2Cl)cc2cnc(NC(CCO)CCO)nc21` [Example 4], the IC50 in experiment [1] was 50 to 500 nM; in experiment [2], 500 to 5000 nM; in experiment [3], > 5000 nM; in experiment [4], 500 to 5000 nM.

For `CCn1c(=O)c(-c2ccc(-c3nccnc3C)cc2Cl)cc2cnc(NC(CCO)CCO)nc21` [Example 5], the IC50 was 500 to 5000 nM in experiment [1], 500 to 5000 nM in experiment [2], > 5000 nM in experiment [3] and 500 to 5000 nM in experiment [4].

With `CCn1c(=O)c(-c2ccc(-c3nccnc3C)cc2Cl)cc2cnc(NCCO)nc21` [Example 6], the IC50 in experiment [1] was 50 to 500 nM; in experiment [2] it was 50 to 500 nM; in experiment [3] it was > 5000 nM; in experiment [4], 50 to 500 nM.

In the case of `CCn1c(=O)c(-c2ccc(-c3cncc(C)n3)cc2Cl)cc2cnc(NCCCOC)nc21` [Example 10], the IC50 in experiment [1] is 50 to 500 nM; in experiment [2] it was 50 to 500 nM; in experiment [3] it was > 5000 nM; in experiment [4], 50 to 500 nM.

Take `Cc1cncc(-c2ccc(-c3cc4cnc(NC(CCO)CCO)nc4n(Cc4ccccc4C(F)(F)F)c3=O)c(Cl)c2)n1` [Example 2]: the IC50 in experiment [1] is 50 to 500 nM; in experiment [2] it was 50 to 500 nM; in experiment [3] it was > 5000 nM; in experiment [4], 50 to 500 nM.

Regarding `CCn1c(=O)c(-c2ccc(-c3nccnc3C)cc2Cl)cc2cnc(NCCCOC)nc21` [Example 9], the IC50 in experiment [1] was 50 to 500 nM; in experiment [2], 500 to 5000 nM; in experiment [3], > 5000 nM; in experiment [4] it was 50 to 500 nM.

For the compound `CCn1c(=O)c(-c2ccc(-c3noc(C)n3)cc2Cl)cc2cnc(N[C@@H]3COC[C@@H]3N3CCN(C)CC3)nc21`, the IC50 is > 5000 nM in experiment [7]; 50 to 500 nM in experiment [8] (10 μM ATP, read-out: PAK1 IC50 (10 μM ATP)); > 5000 nM in experiment [8] (1 mM ATP, read-out: PAK1 IC50 (1 mM ATP)).
